According to BindingDB's records for doi:10.1016/j.bmcl.2014.08.028 (Rhône-Poulenc Rorer, 2014):
pIC50: −log10 of the molar value.

Experiment: Antagonist activity at CRTH2 receptor in human whole blood assessed as inhibition of PGD2-induced eosinophil shape change after 10 mins by fluorescence assay

Point of comparison: Cc1ccc2c(CC(=O)O)cn(-c3ccc(Cl)cc3Cn3c(C)nnc3C3CC3)c2n1, pIC50 8.40. Against it:
- Cc1ccc2c(CC(=O)O)cn(-c3ccc(Cl)cc3Cn3c(C)nnc3Cc3ccccc3)c2n1 — 0.30 log units higher, 8.70
- Cc1nnc(C2CC2)n1Cc1cc(C(F)(F)F)ccc1-c1cn(CC(=O)O)c2ccc(F)cc12 — 0.30 log units higher, 8.70
- Cc1ccc2c(CC(=O)O)cn(-c3ccc(C(F)(F)F)cc3Cc3c(C4CC4)noc3C3CC3)c2n1 — 1.18 log units lower, 7.22
- Cc1nnc(C2CC2)n1Cc1cc(C(F)(F)F)ccc1-n1cc(CC(=O)O)c2ccc(F)cc21 — 0.25 log units lower, 8.15
- Cc1noc(C2CC2)c1Cc1cc(C(F)(F)F)ccc1-c1cn(CC(=O)O)c2ccc(C(F)(F)F)nc12 — 1.13 log units lower, 7.27
- Cc1ccc2c(CC(=O)O)cn(-c3ccc(F)cc3Cc3c(C)noc3C3CC3)c2n1 — 0.60 log units higher, 9.00
- Cc1ccc2c(CC(=O)O)cn(-c3ccc(C(F)(F)F)cc3Cc3c(C)noc3C3CC3)c2n1 — within 0.2 log units, 8.30
- Cc1ccc2c(CC(=O)O)cn(-c3ccc(F)cc3Cc3c(C)cnn3C)c2n1 — within 0.2 log units, 8.22
- Cc1ccn2c(CC(=O)O)cc(-c3ccc(C(F)(F)F)cc3Cc3c(C)noc3C3CC3)c2n1 — 0.81 log units lower, 7.59
- Cc1ccc2c(CC(=O)O)cn(-c3ccc(Cl)cc3Cn3c(C)nnc3CCc3ccccc3)c2n1 — within 0.2 log units, 8.30
- Cc1ccc(-n2cc(CC(=O)O)c3ccc(C)nc32)c(Cn2c(C)nnc2C)c1 — 0.60 log units higher, 9.00
- Cc1ccc2c(CC(=O)O)cn(-c3ccc(Cl)cc3Cc3c(C4CC4)noc3C3CC3)c2n1 — 0.40 log units lower, 8.00
- Cc1noc(C2CC2)c1Cc1cc(F)ccc1-c1cn(CC(=O)O)c2ccc(C(F)(F)F)cc12 — 0.60 log units lower, 7.80
